Assays:
[1] = Intrinsic clearance in human liver microsomes; assay type: ADME; settings: read-out: CLH
[2] = Inhibition of Hepatitis C virus genotype 1a full-length NS3/4A protease; set-up: species or system Hepatitis C virus subtype 1a
[3] = Apparent permeability of the compound from apical to basolateral side of human Caco2 cells; assay type: ADME, cell-based; settings: Caco-2
[4] = Volume of distribution at steady state in Sprague-Dawley rat at 2 mg/kg, iv administered as single dose with 20% Hydroxypropyl-beta-cyclodextrine; assay type: ADME, organism-based; set-up: dose 2 mg/kg, route intravenous; settings: in vivo, read-out: Vdss
[5] = system: Hepatitis C virus; test: Antiviral activity against Hepatitis C virus genotype 1b infected in Huh7-clone ET Rep cells assessed as inhibition of HCV replication by luciferase assay; assay type: functional, organism-based, Hepacivirus hominis
[6] = Drug metabolism in human liver microsomes at 5 uM at 37 degC after 15 mins; assay type: ADME; settings: read-out: Drug metabolism
[7] = Inhibition of Hepatitis C virus genotype 1b NS3/4A protease; set-up: species or system Hepatitis C virus subtype 1b
[8] = system: Hepatitis C virus; test: Antiviral activity against Hepatitis C virus genotype 1a; assay type: functional, organism-based, Hepacivirus hominis; settings: subtype 1a
[9] = system: Hepatitis C virus; test: Antiviral activity against Hepatitis C virus genotype 1 infected in human patient assessed as log10 reduction of viral RNA level administered as oral dose measured after 2 days; assay type: functional, Hepacivirus hominis
[10] = Oral bioavailability in rat; assay type: ADME, organism-based; settings: in vivo
[11] = Metabolic stability in rat bile assessed as unchanged drug level at 1 mg/kg, iv after 1 hr; assay type: ADME, organism-based; set-up: dose 1 mg/kg, route intravenous; settings: read-out: Stability
[12] = Plasma clearance in rat; assay type: ADME, organism-based
[13] = AUC in Sprague-Dawley rat at 10 mg/kg, po administered with 50% PEG400 containing 2.5% of Vitamin E-TPGS; assay type: ADME, organism-based; set-up: dose 10 mg/kg, route oral; settings: plasma
[14] = Half life in Sprague-Dawley rat at 10 mg/kg, po administered with 50% PEG400 containing 2.5% of Vitamin E-TPGS; assay type: ADME, organism-based; set-up: dose 10 mg/kg, route oral; settings: in vivo
[15] = Tmax in Sprague-Dawley rat at 10 mg/kg, po administered with 50% PEG400 containing 2.5% of Vitamin E-TPGS; assay type: ADME, organism-based; set-up: dose 10 mg/kg, route oral; settings: in vivo
[16] = Ratio of drug level in liver to plasma in Sprague-Dawley rat at 2 mg/kg, iv administered as single dose with 20% Hydroxypropyl-beta-cyclodextrine measured after 6 hrs; assay type: ADME, organism-based; set-up: dose 2 mg/kg, route intravenous; settings: liver and plasma
[17] = Ratio of drug level in liver to plasma in Sprague-Dawley rat at 10 mg/kg, po administered with 50% PEG400 containing 2.5% of Vitamin E-TPGS measured after 6 hrs; assay type: ADME, organism-based; set-up: dose 10 mg/kg, route oral; settings: liver and plasma
[18] = Oral bioavailability in Sprague-Dawley rat at 10 mg/kg administered with 50% PEG400 containing 2.5% of Vitamin E-TPGS; assay type: ADME, organism-based; settings: in vivo
[19] = Clearance in Sprague-Dawley rat at 2 mg/kg, iv administered as single dose with 20% Hydroxypropyl-beta-cyclodextrine; assay type: ADME, organism-based; set-up: dose 2 mg/kg, route intravenous; settings: in vivo
[20] = Cmax in Sprague-Dawley rat at 10 mg/kg, po administered with 50% PEG400 containing 2.5% of Vitamin E-TPGS; assay type: ADME, organism-based; set-up: dose 10 mg/kg, route oral; settings: in vivo
[21] = system: Hepatitis C virus; test: Antiviral activity against Hepatitis C virus infected in po dosed patient assessed as log10 reduction of HCV RNA level administered qd for 5 days; assay type: functional, Hepacivirus hominis
[22] = Cytotoxicity against staphylococcal enterotoxin B-stimulated human PBMC assessed as decrease in cell viability after 72 hrs by WST-1 assay; assay type: cell-based
[23] = system: PBMC; test: Cytostatic activity against staphylococcal enterotoxin B-stimulated human PBMC assessed as decrease in cell proliferation after 7 hrs by [3H]thymidine incorporation assay; assay type: cell-based; settings: read-out: CS50 (the source's name)
[24] = Protein binding in plasma (unknown origin); assay type: ADME, cell-free; settings: read-out: PPB

COc1ccc2c(O[C@@H]3C[C@H]4C(=O)N[C@]5(C(=O)NS(=O)(=O)C6CC6)C[C@H]5/C=C\CCCCN(C)C(=O)N4C3)nc(-c3ccccc3)nc2c1C
microsomal CLint [1]: 17 µL/min/mg
Ki [2]: 0.2 nM
Papp A→B [3]: 26 ×10⁻⁶ cm/s
Vd [4]: 1.1 L/kg
EC50 [5]: 11 nM

COc1ccc(-c2nc(O[C@@H]3C[C@H]4C(=O)N[C@]5(C(=O)NS(=O)(=O)C6CC6)C[C@H]5/C=C\CCCCN(C)C(=O)N4C3)c3ccc(OC)c(C)c3n2)cc1
microsomal CLint [1]: 8 µL/min/mg
Ki [2]: 0.6 nM
Papp A→B [3]: 33 ×10⁻⁶ cm/s
EC50 [5]: 3 nM

C=C[C@@H]1C[C@]1(NC(=O)[C@@H]1C[C@@H](Oc2cc(-c3ccccc3)nc3cc(OC)ccc23)C=C1C(=O)N[C@H](C(=O)N[C@H](C(=O)NC)C1CCCCC1)C(C)(C)C)C(=O)O
Ki [2]: 1.3 nM

C=C[C@@H]1C[C@]1(NC(=O)[C@@H]1C[C@@H](Oc2cc(-c3ccccc3)nc3cc(OC)ccc23)C[C@H]1C(=O)N[C@H](C(=O)N[C@H](C(=O)NC)C1CCCCC1)C(C)(C)C)C(=O)O
Ki [2]: 22 nM

CCc1cnc(-c2ccc(C)cc2NC(=O)O[C@@H]2C[C@H]3C(=O)N[C@]4(C(=O)NS(=O)(=O)C5CC5)C[C@H]4/C=C\CCCCN(C)C(=O)[C@@H]3C2)s1
microsomal CLint [1]: < 6 µL/min/mg
Ki [2]: 0.2 nM
Papp A→B [3]: 15 ×10⁻⁶ cm/s
EC50 [5]: 3.2 nM

CCOc1cc(O[C@@H]2C[C@H]3C(=O)N[C@]4(C(=O)NS(=O)(=O)C5CC5)C[C@H]4/C=C\CCCCN(C)C(=O)[C@@H]3C2)c2ccc(OC)c(C)c2n1
EC50 [5]: 4.3 nM

COc1cc(O[C@@H]2C[C@H]3C(=O)N[C@]4(C(=O)NS(=O)(=O)C5CC5)C[C@H]4/C=C\CCCCN(C)C(=O)N3C2)nc(-c2ccccc2)n1
EC50 [5]: 84 nM

COc1ccc2c(O[C@@H]3C[C@H]4C(=O)N[C@]5(C(=O)NS(=O)(=O)C6CC6)C[C@H]5/C=C\COCCN(C)C(=O)[C@@H]4C3)cc(-c3ccccc3)nc2c1
EC50 [5]: 320 nM

COc1ccc2c(O[C@@H]3C[C@H]4C(=O)N[C@]5(C(=O)O)C[C@H]5/C=C/CCCCC[C@H](NC(=O)OC5CCCC5)C(=O)N4C3)cc(-c3csc(NC(C)C)n3)nc2c1 [listing 1 of 2 here]
metabolised at 0.25 h, 5 µM [6]: 2.5%
Ki [7]: 0.66 nM
EC50 [5]: 1.63 nM
EC50 [8]: 4 nM

COc1ccc2c(O[C@@H]3C[C@H]4C(=O)N[C@]5(C(=O)O)C[C@H]5/C=C/CCCCC[C@H](NC(=O)OC5CCCC5)C(=O)N4C3)cc(-c3csc(NC(C)C)n3)nc2c1 [listing 2 of 2 here]
FC [9]: 2

COc1ccc2c(O[C@@H]3C[C@H]4C(=O)N[C@]5(C(=O)O)C[C@H]5/C=C\CCCN(C(=O)OC(C)(C)C)C(=O)[C@@H]4C3)cc(-c3ccccc3)nc2c1
Ki [2]: 130 nM
EC50 [5]: > 10 nM

COc1ccc2c(O[C@@H]3C[C@H]4C(=O)N[C@]5(C(=O)O)C[C@H]5/C=C\CCCCN(C(=O)OC(C)(C)C)C(=O)[C@@H]4C3)cc(-c3ccccc3)nc2c1
Ki [2]: 31 nM
EC50 [5]: > 10 nM

COc1ccc2c(O[C@@H]3C[C@H]4C(=O)N[C@]5(C(=O)O)C[C@H]5/C=C\CCCCCN(C(=O)OC(C)(C)C)C(=O)[C@@H]4C3)cc(-c3ccccc3)nc2c1
Ki [2]: 710 nM
EC50 [5]: > 10 nM

COc1ccc2c(O[C@@H]3C[C@H]4C(=O)N[C@]5(C(=O)O)C[C@H]5/C=C\CCCCN(N)C(=O)[C@@H]4C3)cc(-c3ccccc3)nc2c1
Ki [2]: 6 nM
EC50 [5]: 7.6 nM

COc1ccc2c(O[C@H]3C=C4C(=O)N(N)CCCC/C=C\[C@@H]5C[C@@]5(C(=O)O)NC(=O)C4C3)cc(-c3ccccc3)nc2c1 (stereo partly specified)
Ki [2]: 15 nM
EC50 [5]: 5.4 nM

COc1ccc2c(O[C@H]3C[C@H]4C(=O)NCCCC/C=C\[C@@H]5C[C@@]5(C(=O)O)NC(=O)[C@@H]4C3)cc(-c3ccccc3)nc2c1
Ki [2]: 260 nM
EC50 [5]: > 10 nM

COc1ccc2c(O[C@@H]3C[C@H]4C(=O)N[C@]5(C(=O)O)C[C@H]5/C=C\CCCCN(C)C(=O)[C@@H]4C3)cc(-c3ccccc3)nc2c1
Ki [2]: 44 nM
EC50 [5]: 2.2 nM

COc1ccc2c(O[C@@H]3C[C@H]4C(=O)N[C@]5(C(=O)NS(=O)(=O)C6CC6)C[C@H]5/C=C\CCCCN(NC(=O)OC(C)(C)C)C(=O)[C@@H]4C3)cc(-c3ccccc3)nc2c1
Ki [2]: 0.07 nM
EC50 [5]: 0.53 nM

COc1ccc2c(O[C@@H]3C[C@H]4C(=O)N[C@]5(C(=O)NS(=O)(=O)C6CC6)C[C@H]5/C=C\CCCCN(N)C(=O)[C@@H]4C3)cc(-c3ccccc3)nc2c1
Ki [2]: 0.19 nM
EC50 [5]: 0.033 nM

COc1ccc2c(O[C@H]3C[C@H]4C(=O)NCCCC/C=C\[C@@H]5C[C@@]5(C(=O)NS(=O)(=O)C5CC5)NC(=O)[C@@H]4C3)cc(-c3ccccc3)nc2c1
Ki [2]: 2.2 nM
EC50 [5]: 4.4 nM

COc1ccc2c(O[C@@H]3C[C@H]4C(=O)N[C@]5(C(=O)NS(=O)(=O)C6CC6)C[C@H]5/C=C\CCCCN(C)C(=O)[C@@H]4C3)cc(-c3ccccc3)nc2c1
bioavailability [10]: 2.5%
remaining at 1 h [11]: 95%
clearance [12]: 46.5 mL/min/kg

COc1ccc2c(O[C@@H]3C[C@H]4C(=O)N[C@]5(C(=O)NS(=O)(=O)C6(C)CC6)C[C@H]5/C=C\CCCCCNC(=O)N4C3)cc(-c3nc(C(C)C)cs3)nc2c1
AUC [13]: 6 µM·h
metabolised at 0.25 h, 5 µM [6]: 89%
Vd [4]: 1 L/kg
half-life [14]: 180 min
Tmax [15]: 45 min
Kp at 6 h [16]: 550
Kp at 6 h [17]: 100

COc1ccc2c(O[C@@H]3C[C@H]4C(=O)N[C@]5(C(=O)NS(=O)(=O)C6(C)CC6)C[C@H]5/C=C\CCCCCC(=O)N4C3)cc(-c3nc(C(C)C)cs3)nc2c1C
Ki [2]: 0.2 nM
Papp A→B [3]: 11.1 ×10⁻⁶ cm/s
Vd [4]: 0.56 L/kg
bioavailability [18]: 31%
half-life [14]: 162 min
clearance [19]: 15.7 mL/min/kg
Tmax [15]: 45 min
EC50 [5]: 3.8 nM
Cmax [20]: 930 nM

COc1ccc2c(O[C@@H]3C[C@H]4C(=O)N[C@]5(C(=O)NS(=O)(=O)C6CC6)C[C@H]5/C=C\CCCCN(C)C(=O)[C@@H]4C3)cc(-c3nc(C(C)C)cs3)nc2c1C [SIMEPREVIR]
FC [21]: 3.9
CC50 at 72 h [22]: ≥ 10 µM
Ki [2]: 0.36 nM
GI50 [23]: ≥ 10 µM
Ki [7]: 1.4 nM
EC50 [5]: 7.8 nM
EC90 [5]: 19 nM
fraction unbound [24]: < 0.01

H-DDIVPC-OH
Ki [2]: 71000 nM
